Three compounds from PMC12264943, “Identification of New Human P2X7 Antagonists Using Ligand- and Structure-Based Virtual Screening” (Journal of Chemical Information and Modeling, 2025) can be followed below.

Like-named read-outs stand apart in the source and are kept apart here.

For orientation: IC50 means the concentration needed to halve the response being measured. As usually defined, the EC50 is the concentration that produces a half-maximal response.

The target of one data set is T1, hP2X7 (Homo sapiens, UniProt Q99572).
T1 construct: expressed in transfected cells; host or cells: HEK-293, stably transfected (gift of E. Adinolfi's group, Ferrara University)
T1 sequence (Q99572 1-595): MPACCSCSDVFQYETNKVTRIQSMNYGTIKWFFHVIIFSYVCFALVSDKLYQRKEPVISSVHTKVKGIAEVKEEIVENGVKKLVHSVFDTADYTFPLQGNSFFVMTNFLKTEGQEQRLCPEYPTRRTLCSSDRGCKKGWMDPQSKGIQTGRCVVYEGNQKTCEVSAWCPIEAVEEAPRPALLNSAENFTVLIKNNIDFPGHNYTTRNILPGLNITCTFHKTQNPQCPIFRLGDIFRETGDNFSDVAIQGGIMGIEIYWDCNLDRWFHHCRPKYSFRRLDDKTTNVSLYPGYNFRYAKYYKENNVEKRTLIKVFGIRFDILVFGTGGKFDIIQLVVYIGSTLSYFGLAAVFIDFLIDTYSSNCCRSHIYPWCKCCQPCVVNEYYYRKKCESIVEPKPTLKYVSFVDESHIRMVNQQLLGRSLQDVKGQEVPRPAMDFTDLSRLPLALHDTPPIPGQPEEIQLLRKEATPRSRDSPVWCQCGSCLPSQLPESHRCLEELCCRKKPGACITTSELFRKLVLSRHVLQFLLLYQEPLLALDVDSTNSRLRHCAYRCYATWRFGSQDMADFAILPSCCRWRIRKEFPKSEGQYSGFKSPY
The experiment in a line: YO-PRO 1 dye uptake assay, HEK-293 cells stably transfected with hP2X7. It counts as cell-based. The conditions noted are these: for EC50: read-out: ATP EC50. As to the method: Astrocytoma 1321 N1 (established by Dr. Gaia Pasqualetto) and HEK-293 (kindly gifted by E. Adinolfi’s group, Ferrara University) both stably transfected with hP2X7, were used to assess the activity of the small molecules selected from the VS. Cells were maintained in DMEM:F12 (PanBiotech) supplemented with 10% FBS, 1% pen-strep, and 150 μg/mL G418 (PanBiotech).
Astrocytoma 1321 N1 cells (2–2.5 × 10^4 cells/well) and HEK-293 cells (4–5 × 10^4 cells/well) expressing hP2X7 were seeded in poly-L-lysine-coated 96-well plates (Sarstedt) 24 h before the experiment. YO-PRO 1 dye was prepared at 5 μM in extracellular solution with low divalent cations (ECS-LD) buffer (147 mM NaCl, 10 mM HEPES, 13 mM glucose, 0.2 mM CaCl2, 2 mM KCl, pH 7.4) and added to cells after washing them with Dulbecco’s phosphate- buffered saline (DPBS) (PanBiotech) and incubated for 20 min at 37 °C. ATP-induced dye uptake, mediated by hP2X7 activation, was monitored using a Clariostar plate reader (excitation: 485 nm; emission: 538 nm) for 30 cycles (75–150 s/cycle), after recording the baseline for five cycles. hP2X7 activation was quantified at cycle 10 by calculating the fluorescence intensity (FI) ratio (Δ(Fcycle 10–F cycle 1)/cycle time).
Compounds 2 and 9, identified as hits, were further evaluated for concentration-dependent inhibition (IC50) of hP2X7 activation in the YO-PRO 1 dye uptake assay using HEK-293 cells stably transfected with hP2X7 (unfortunately, at this point in the study, the stably transfected 1321N1 cells lost P2X7 expression, and we were unable to recover them from frozen aliquots), for which the ATP EC50 was determined to be approximately 1 mM (Supporting material Figure 4C). Seven concentrations (100 to 0.03 μM) were tested, but due to precipitation at 100 μM, the DMSO concentration was increased to 1%.
3 Inhibitory concentration response evaluation of compounds 2 and 9 and their groups highlighted for SAR. […] Compound activity was evaluated along a time of 20 min (75 s per cycle) after ATP addition (700 μM). The fluorescence intensity (FI) values of the first 10 cycles were considered for assessing their ability to inhibit hP2X7. The curves represent three biological replicates (n = 4 per replicate). Data were normalized by setting as 100% the FI recorded by hP2X7 HEK-293 cells incubated in 1% DMSO and stimulated by ATP, and as 0% the FI recorded by the same cells but treated with ECS-LD (assay buffer). (C) Highlighted areas of compound 2 considered for SAR study. R1 refers to the ethyl-benzyl group of the molecules, and R2 and R3 refer to the benzo-(1,3)-dioxol groups. (D) Highlighted areas of compound 9 considered for SAR study. We have defined the area highlighted in yellow and numbered as 1 as the “front” region of the molecule and the one colored in pink and named as 2 as the “back” region of the molecule. L highlights the urea and amide linkers of compounds 2 and 9, respectively.
4 Evaluation of compound 2 and 9 analogue activity using YO-PRO 1 and MPR assays. The activity of compound 2 (A and B) and 9 (C and D) analogues was evaluated in YO-PRO 1 (A and C) and MPR (B and D) assays. The compounds were tested at 10 μM and preincubated for either 20 (YO-PRO 1) or 30 min (MPR). The baseline was recorded for 5 cycles before ATP treatment (1 mM). Fluorescence was recorded for 25 (YO-PRO 1) or 5 min (MPR). The data were normalized by setting as 100% for the fluorescence measured from hP2X7 HEK-293 cells incubated with vehicle (0.1% DMSO) and treated with 1 mM ATP and 0% for the fluorescence recorded by the cells not treated with ATP. The data shown correspond to three independent biological replicates (3 technical replicates per experiment; error bars represent the SEM from the mean values of each biological replicate (n = 3)). The statistical analysis was performed with one-way Anova using Dunnett’s function (P**** < 0.0001; P*** < 0.0003; P** < 0.002; P* < 0.02).

Another data set relates to HEK-293 WT cells. The experiment in a line: Cytotoxicity assay (CellTiter Blue). The data set is classed as cell-based. The conditions noted are these: 10 μM, 24 h, nontransfected HEK-293 cells. As to the method:
HEK-293 WT cells were seeded at 4 × 10^4 cells/well in 96-well plates precoated with poly-L-lysine. After 24 h, the cells were washed with DPBS and treated with test compounds (10 μM) in 2% FBS-containing medium for 24 h. After this, the medium containing the test compounds was replaced with 20% CellTiter-Blue reagent (Promega) in 2% FBS medium. After a 2-h incubation, fluorescence (excitation: […]; emission: […]) was measured using a Clariostar plate reader. Data were normalized to untreated control cells (100%) and wells without cells (0%).
5 Concentration inhibition curve determination for compound 2g (A) and evaluation of cytotoxicity for compounds 2, 9, and 2g. […] The data on the graph represent the mean from three independent experiments (n = 3 replicates per experiment). (B) The cytotoxicity of the compounds was evaluated on nontransfected HEK-293 cells using a CellTiter Blue assay. The cells were incubated for 24 h with the compounds at 10 μM. The fluorescent signal obtained from vehicle-treated cells (0.1% DMSO) was used to normalize the data to 100%, and the one obtained from wells not containing cells (BLANK) was set as 0%. The data are the combination of three biological replicates (error bars represent the SEM (n = 3)) analyzed by one-way ANOVA using Dunnet’s function (P**** < 0.0001; **< 0.002; * < 0.02; ns, non significant).
The potential cytotoxicity of the hit compounds identified, 2, 9, and 2g, was assessed at 10 μM by CellTiter Blue assay using nontransfected HEK-293 cells (Figure B).
In general terms: The colour change of resazurin is a common sign of viable cells or microbes.

Where [1] appears, read: Table 1, table names no assay, values of 2 and 9 are from YO-PRO 1 dye uptake in hP2X7 HEK-293 cells, read-out: IC50.
The mark [2] stands for this setting: YO-PRO 1 uptake, HEK-293 hP2X7 cells.

For the compound `O=C(CSc1ccccc1C(=O)Nc1ccnn1Cc1cccnc1)Nc1ccc2c(c1)OCO2` [Compound 9], the IC50 at hP2X7 (setting [1]) stood at 6.82 µM. Further, in the data set with HEK-293 WT cells, the “reduction in cell viability” value is listed as “no significant reduction in cell viability”.

In the case of `Nc1ncnc2c1ncn2[C@@H]1O[C@H](COP(=O)(O)OP(=O)(O)OP(=O)(O)O)[C@@H](O)[C@H]1O` [ATP, reference compound], the “Hill Slope of ATP concentration-response curve” value at hP2X7 (setting [2]) is reported as 1.397. Further, the EC50 at hP2X7 (YO-PRO 1 uptake, HEK-293 hP2X7 cells, approximate value) is roughly 1000 µM; on hP2X7 (setting [2]) it was 1140 ± 239 µM.

For `O=C(NCCc1ccccc1)NC(Cc1ccc2c(c1)OCO2)Cc1ccc2c(c1)OCO2` [Compound 2], the IC50 at hP2X7 (setting [1]) was determined as 1.88 µM; on hP2X7 (YO-PRO 1 dye uptake, hP2X7 HEK-293 cells, 100 to 0.03 μM, 1% DMSO, read-out: IC50, inhibition of hP2X7 activation), 1.87 µM. The “reduction in cell viability” value with HEK-293 WT cells is listed as roughly 10%.
